Laboratory results reported in ChEMBL document CHEMBL5724914, “Linking interpersonal differences in gut microbiota composition and drug biotransformation activity” (2024).

Columns and labels:
[1] = The drug is tested on Z-025 corresponding to rabbit gut metagenome with ENA study accession number: PRJEB37062 and ENA sample accession number: ERS12561824 for biotransformation under anaerobic condition. The drug concentrations were measured over 9 timepoints collected between 0 and 24 hours of incubation by liquid-chromatography-coupled mass spectrometry (LC–MS); conditions: 2 µM
[2] = The drug is tested on Z-024 corresponding to pig gut metagenome with ENA study accession number: PRJEB37062 and ENA sample accession number: ERS12561823 for biotransformation under anaerobic condition. The drug concentrations were measured over 9 timepoints collected between 0 and 24 hours of incubation by liquid-chromatography-coupled mass spectrometry (LC–MS); conditions: 2 µM
[3] = The drug is tested on Z-022 corresponding to mouse gut metagenome with ENA study accession number: PRJEB37062 and ENA sample accession number: ERS12561821 for biotransformation under anaerobic condition. The drug concentrations were measured over 9 timepoints collected between 0 and 24 hours of incubation by liquid-chromatography-coupled mass spectrometry (LC–MS); conditions: 2 µM
[4] = The drug is tested on Z-021 corresponding to metagenome with ENA study accession number: PRJEB37062 and ENA sample accession number: ERS12561820 for biotransformation under anaerobic condition. The drug concentrations were measured over 9 timepoints collected between 0 and 24 hours of incubation by liquid-chromatography-coupled mass spectrometry (LC–MS); conditions: 2 µM
[5] = The drug is tested on Z-003 corresponding to pig gut metagenome with ENA study accession number: PRJEB37062 and ENA sample accession number: ERS12561803 for biotransformation under anaerobic condition. The drug concentrations were measured over 9 timepoints collected between 0 and 24 hours of incubation by liquid-chromatography-coupled mass spectrometry (LC–MS); conditions: 2 µM
[6] = The drug is tested on WLS-350 corresponding to human gut metagenome with ENA study accession number: PRJEB37062 and ENA sample accession number: ERS12561789 for biotransformation under anaerobic condition. The drug concentrations were measured over 9 timepoints collected between 0 and 24 hours of incubation by liquid-chromatography-coupled mass spectrometry (LC–MS); conditions: 2 µM
[7] = The drug is tested on WLS-240 corresponding to human gut metagenome with ENA study accession number: PRJEB37062 and ENA sample accession number: ERS12561773 for biotransformation under anaerobic condition. The drug concentrations were measured over 9 timepoints collected between 0 and 24 hours of incubation by liquid-chromatography-coupled mass spectrometry (LC–MS); conditions: 2 µM
[8] = The drug is tested on WLS-086 corresponding to human gut metagenome with ENA study accession number: PRJEB37062 and ENA sample accession number: ERS12561752 for biotransformation under anaerobic condition. The drug concentrations were measured over 9 timepoints collected between 0 and 24 hours of incubation by liquid-chromatography-coupled mass spectrometry (LC–MS); conditions: 2 µM
[9] = The drug is tested on WLS-077 corresponding to human gut metagenome with ENA study accession number: PRJEB37062 and ENA sample accession number: ERS12561750 for biotransformation under anaerobic condition. The drug concentrations were measured over 9 timepoints collected between 0 and 24 hours of incubation by liquid-chromatography-coupled mass spectrometry (LC–MS); conditions: 2 µM
[10] = The drug is tested on WLS-069 corresponding to human gut metagenome with ENA study accession number: PRJEB37062 and ENA sample accession number: ERS12561748 for biotransformation under anaerobic condition. The drug concentrations were measured over 9 timepoints collected between 0 and 24 hours of incubation by liquid-chromatography-coupled mass spectrometry (LC–MS); conditions: 2 µM
[11] = The drug is tested on WLS-039 corresponding to human gut metagenome with ENA study accession number: PRJEB37062 and ENA sample accession number: ERS12561746 for biotransformation under anaerobic condition. The drug concentrations were measured over 9 timepoints collected between 0 and 24 hours of incubation by liquid-chromatography-coupled mass spectrometry (LC–MS); conditions: 2 µM
[12] = The drug is tested on WLS-038 corresponding to human gut metagenome with ENA study accession number: PRJEB37062 and ENA sample accession number: ERS12561745 for biotransformation under anaerobic condition. The drug concentrations were measured over 9 timepoints collected between 0 and 24 hours of incubation by liquid-chromatography-coupled mass spectrometry (LC–MS); conditions: 2 µM
[13] = human gut metagenome, 24 h, 2 µM
[14] = human gut metagenome, 24 h, 2 µM; remark: listed apart in the source
[15] = human gut metagenome, 24 h, 2 µM; remark: listed apart in the source
[16] = human gut metagenome, 24 h, 2 µM; remark: listed apart in the source
[17] = human gut metagenome, 24 h, 2 µM; remark: listed apart in the source
[18] = human gut metagenome, 24 h, 2 µM; remark: listed apart in the source
[19] = human gut metagenome, 24 h, 2 µM; remark: listed apart in the source
[20] = human gut metagenome, 24 h, 2 µM; remark: listed apart in the source
Note: call rule not given here.

| Compound | Bacterial Biotransformation [1] | Bacterial Biotransformation [2] | Bacterial Biotransformation [3] | Bacterial Biotransformation [4] | Bacterial Biotransformation [5] | Bacterial Biotransformation [6] | Bacterial Biotransformation [7] | Bacterial Biotransformation [8] | Bacterial Biotransformation [9] | Bacterial Biotransformation [10] | Bacterial Biotransformation [11] | Bacterial Biotransformation [12] | Bacterial Biotransformation [13] | Bacterial Biotransformation [14] | Bacterial Biotransformation [15] | Bacterial Biotransformation [16] | Bacterial Biotransformation [17] | Bacterial Biotransformation [18] | Bacterial Biotransformation [19] | Bacterial Biotransformation [20] |
| --- | --- | --- | --- | --- | --- | --- | --- | --- | --- | --- | --- | --- | --- | --- | --- | --- | --- | --- | --- | --- |
| C=CCc1ccccc1OCC(O)CNC(C)C (stereo not given) [ALPRENOLOL] | Compound metabolized | Compound metabolized | Compound metabolized | Compound metabolized | Compound metabolized | Compound NOT metabolized | Compound metabolized | Compound metabolized | Compound NOT metabolized | Compound NOT metabolized | Compound NOT metabolized | Compound NOT metabolized | Compound NOT metabolized | Compound metabolized | Compound NOT metabolized | Compound NOT metabolized | Compound metabolized | Compound metabolized | Compound metabolized | Compound metabolized |
| CN1CCc2cccc3c2[C@H]1Cc1ccc(O)c(O)c1-3 [APOMORPHINE] | Compound metabolized | Compound metabolized | Compound NOT metabolized | Compound NOT metabolized | Compound metabolized | Compound NOT metabolized | Compound NOT metabolized | Compound NOT metabolized | Compound NOT metabolized | Compound NOT metabolized | Compound NOT metabolized | Compound NOT metabolized | Compound NOT metabolized | Compound NOT metabolized | Compound NOT metabolized | Compound NOT metabolized | Compound NOT metabolized | Compound NOT metabolized | Compound NOT metabolized | Compound NOT metabolized |
| CC(C)c1c(C(=O)Nc2ccccc2)c(-c2ccccc2)c(-c2ccc(F)cc2)n1CC[C@@H](O)C[C@@H](O)CC(=O)O [ATORVASTATIN] | Compound NOT metabolized | Compound NOT metabolized | Compound NOT metabolized | Compound NOT metabolized | Compound metabolized | Compound metabolized | Compound metabolized | Compound metabolized | Compound metabolized | Compound metabolized | Compound metabolized | Compound metabolized | Compound metabolized | Compound metabolized | Compound metabolized | Compound NOT metabolized | Compound metabolized | Compound metabolized | Compound metabolized | Compound metabolized |

Next, values leading:

| Bacterial Biotransformation [1] | Bacterial Biotransformation [2] | Bacterial Biotransformation [3] | Bacterial Biotransformation [4] | Bacterial Biotransformation [5] | Bacterial Biotransformation [6] | Bacterial Biotransformation [7] | Bacterial Biotransformation [8] | Bacterial Biotransformation [9] | Bacterial Biotransformation [10] | Bacterial Biotransformation [11] | Bacterial Biotransformation [12] | Bacterial Biotransformation [13] | Bacterial Biotransformation [14] | Bacterial Biotransformation [15] | Bacterial Biotransformation [16] | Bacterial Biotransformation [17] | Bacterial Biotransformation [18] | Bacterial Biotransformation [19] | Bacterial Biotransformation [20] | Compound |
| --- | --- | --- | --- | --- | --- | --- | --- | --- | --- | --- | --- | --- | --- | --- | --- | --- | --- | --- | --- | --- |
| Compound NOT metabolized | Compound metabolized | Compound metabolized | Compound metabolized | Compound metabolized | Compound metabolized | Compound metabolized | Compound metabolized | Compound metabolized | Compound metabolized | Compound metabolized | Compound metabolized | Compound metabolized | Compound metabolized | Compound metabolized | Compound metabolized | Compound metabolized | Compound metabolized | Compound metabolized | Compound metabolized | CCOC(=O)[C@H](CCc1ccccc1)N[C@H]1CCc2ccccc2N(CC(=O)O)C1=O [BENAZEPRIL] |
| Compound metabolized | Compound metabolized | Compound NOT metabolized | Compound metabolized | Compound NOT metabolized | Compound NOT metabolized | Compound NOT metabolized | Compound NOT metabolized | Compound NOT metabolized | Compound NOT metabolized | Compound NOT metabolized | Compound NOT metabolized | Compound NOT metabolized | Compound NOT metabolized | Compound NOT metabolized | Compound NOT metabolized | Compound NOT metabolized | Compound NOT metabolized | Compound NOT metabolized | Compound NOT metabolized | NS(=O)(=O)c1cc2c(cc1Cl)N=C(CSCc1ccccc1)NS2(=O)=O [BENZTHIAZIDE] |
